Results: patent US10703765B2 (priority 2014, dated 2020)
Where a name gives a salt, the structure may show the parent alone. Read-outs that look alike come from different tables or passages of the source.

Target: human σ1 receptor (Homo sapiens, UniProt Q99720)
Assay: biochemical
Format: binding
Design: μ and σ1 dual binding: key to the marks not given beside the values
[1] = read-out: μ and σ1 dual binding
[2] = combined class from Ki-σ1 (human σ1 receptor, A1) and Ki-μ (human μ-opioid receptor, A2) radioligand binding

Chain of human σ1 receptor (Q99720 whole entry): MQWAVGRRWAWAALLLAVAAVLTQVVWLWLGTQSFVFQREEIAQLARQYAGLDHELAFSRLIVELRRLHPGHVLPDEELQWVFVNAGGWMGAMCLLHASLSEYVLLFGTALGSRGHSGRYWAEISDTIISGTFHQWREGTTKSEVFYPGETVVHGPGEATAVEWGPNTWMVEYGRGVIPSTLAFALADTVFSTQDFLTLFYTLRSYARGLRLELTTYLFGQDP

SMILES | Ki [1] [nM] | further results
CC(=O)Nc1cccc(CN2CC3(CCN(CCc4ccccc4)CC3)OCC2=O)c1 [Example 249, N-(3-((3-oxo-9-phenethyl-1-oxa-4,9-diazaspiro[5.5]undecan-4-yl)methyl)phenyl)acetamide hydrochloride] | > 500 | –
CC(=O)Nc1cccnc1CCN1CCC2(CC1)CN(c1ccccc1F)C(=O)C(C)O2 (stereo not drawn) [Example 250, N-(2-(2-(4-(2-fluorophenyl)-2-methyl-3-oxo-1-oxa-4,9-diazaspiro[5.5]undecan-9-yl)ethyl)pyridin-3-yl)acetamide] | > 500 | –
CC(=O)Nc1cccc(CCN2CCC3(CC2)CN(Cc2ccc(C(F)(F)F)cn2)C(=O)CO3)c1 [Example 251, N-(3-(2-(3-oxo-4-((5-(trifluoromethyl)pyridin-2-yl)methyl)-1-oxa-4,9-diazaspiro[5.5]undecan-9-yl)ethyl)phenyl)acetamide hydrochloride] | < 500 | –
CC(=O)Nc1ccc(CCN2CCC3(CC2)CN(c2ccccc2)C(=O)C(C)O3)nc1 (stereo not drawn) [Example 252, N-(6-(2-(2-methyl-3-oxo-4-phenyl-1-oxa-4,9-diazaspiro[5.5]undecan-9-yl)ethyl)pyridin-3-yl)acetamide] | > 500 | –
CC(=O)Nc1ccnc(CCN2CCC3(CC2)CN(c2ccccc2)C(=O)C(C)O3)c1 (stereo not drawn) [Example 253, N-(2-(2-(2-methyl-3-oxo-4-phenyl-1-oxa-4,9-diazaspiro[5.5]undecan-9-yl)ethyl)pyridin-4-yl)acetamide hydrochloride] | > 500 | –
CC(=O)Nc1cccc(CCN2CCC3(CC2)CN(c2ccccc2)C(=O)C(C)O3)n1.Cl (stereo not drawn) [Example 254, N-(6-(2-(2-methyl-3-oxo-4-phenyl-1-oxa-4,9-diazaspiro[5.5]undecan-9-yl)ethyl)pyridin-2-yl)acetamide hydrochloride] | – | μ and σ1 dual binding: ++
CC(=O)Nc1cc(CCN2CCC3(CC2)CN(c2ccccc2)C(=O)C(C)O3)ccn1 (stereo not drawn) [Example 255, N-(4-(2-(2-methyl-3-oxo-4-phenyl-1-oxa-4,9-diazaspiro[5.5]undecan-9-yl)ethyl)pyridin-2-yl)acetamide hydrochloride] | > 500 | –
CC1OC2(CCN(CCc3cccc(NS(C)(=O)=O)c3)CC2)CN(c2ccccc2)C1=O (stereo not drawn) [Example 256, N-(3-(2-(2-methyl-3-oxo-4-phenyl-1-oxa-4,9-diazaspiro[5.5]undecan-9-yl)ethyl)phenyl)methanesulfonamide] | – | Ki: < 500 nM
CC1OC2(CCN(CCc3ccccc3NS(C)(=O)=O)CC2)CN(c2ccccc2)C1=O (stereo not drawn) [Example 257, N-(2-(2-(2-methyl-3-oxo-4-phenyl-1-oxa-4,9-diazaspiro[5.5]undecan-9-yl)ethyl)phenyl)methanesulfonamide] | – | Ki: < 500 nM
CC1OC2(CCN(CCc3ccc(NS(C)(=O)=O)cc3)CC2)CN(c2ccccc2)C1=O (stereo not drawn) [Example 258, N-(4-(2-(2-methyl-3-oxo-4-phenyl-1-oxa-4,9-diazaspiro[5.5]undecan-9-yl)ethyl)phenyl)methanesulfonamide] | – | μ and σ1 dual binding [2]: ++
CS(=O)(=O)Nc1cccc(CN2CC3(CCN(CCc4ccccc4)CC3)OCC2=O)c1 [Example 259, N-(3-((3-oxo-9-phenethyl-1-oxa-4,9-diazaspiro[5.5]undecan-4-yl)methyl)phenyl)methanesulfonamide hydrochloride] | > 500 | –
CS(=O)(=O)Nc1cccc(CCN2CCC3(CC2)CN(c2ccccc2)C(=O)C2(CC2)O3)c1 [Example 260, N-[3-(2-{13-oxo-12-phenyl-4-oxa-8,12-diazadispiro[2.1.5.3]tridecan-8-yl}ethyl)phenyl]methanesulfonamide hydrochloride] | < 500 | –
CC1OC2(CCN(CCc3cccc(NS(=O)(=O)C(C)C)c3)CC2)CN(c2ccccc2)C1=O (stereo not drawn) [Example 261, N-(3-(2-(2-methyl-3-oxo-4-phenyl-1-oxa-4,9-diazaspiro[5.5]undecan-9-yl)ethyl)phenyl)propane-2-sulfonamide hydrochloride] | – | Ki: < 500 nM
CC1OC2(CCN(CCc3cccc(NC(N)=O)c3)CC2)CN(c2ccccc2)C1=O (stereo not drawn) [Example 262, 1-(3-(2-(2-methyl-3-oxo-4-phenyl-1-oxa-4,9-diazaspiro[5.5]undecan-9-yl)ethyl)phenyl)urea] | – | Ki: < 500 nM
NC(=O)Nc1cccc(CCN2CCC3(CC2)CN(Cc2ccc(C(F)(F)F)cn2)C(=O)C2(CC2)O3)c1 [Example 263, {3-[2-(13-oxo-12-{[5-(trifluoromethyl)pyridin-2-yl]methyl}-4-oxa-8,12-diazadispiro[2.1.5.3]tridecan-8-yl)ethyl]phenyl}urea] | < 500 | –
CC1OC2(CCN(CCc3cccc(NC(N)=O)n3)CC2)CN(c2ccccc2)C1=O (stereo not drawn) [Example 264, 1-(6-(2-(2-methyl-3-oxo-4-phenyl-1-oxa-4,9-diazaspiro[5.5]undecan-9-yl)ethyl)pyridin-2-yl)urea] | – | Ki: < 500 nM
CC1OC2(CCN(CCc3cccc(NS(N)(=O)=O)c3)CC2)CN(c2ccccc2)C1=O (stereo not drawn) [Example 265, N-[3-(2-{2-methyl-3-oxo-4-phenyl-1-oxa-4,9-diazaspiro[5.5]undecan-9-yl}ethyl)phenyl]aminosulfonamide] | – | μ and σ1 dual binding [2]: ++
CC1OC2(CCN(CCc3cccc(C(N)=O)c3)CC2)CN(c2ccccc2)C1=O (stereo not drawn) [Example 266, 3-(2-(2-methyl-3-oxo-4-phenyl-1-oxa-4,9-diazaspiro[5.5]undecan-9-yl)ethyl)benzamide] | – | Ki: < 500 nM

SMILES | Ki [1] [nM] | further results
CC1OC2(CCN(CCc3ccc(C(=O)O)cc3)CC2)CN(c2ccccc2)C1=O (stereo not drawn) [Example 267, 4-(2-(2-methyl-3-oxo-4-phenyl-1-oxa-4,9-diazaspiro[5.5]undecan-9-yl)ethyl)benzoic acid] | > 500 | –
CC1OC2(CCN(CCc3ccccc3)CC2)CN(c2cccc(C(=O)O)c2)C1=O (stereo not drawn) [Example 268, 3-(2-methyl-3-oxo-9-phenethyl-1-oxa-4,9-diazaspiro[5.5]undecan-4-yl)benzoic acid] | > 500 | –
CC1OC2(CCN(CCC(=O)O)CC2)CN(c2ccccc2)C1=O (stereo not drawn) [Example 269, 3-(2-methyl-3-oxo-4-phenyl-1-oxa-4,9-diazaspiro[5.5]undecan-9-yl)propanoic acid] | > 500 | –
O=C(O)CC1OC2(CCN(CCc3ccccc3)CC2)CN(c2ccccc2)C1=O (stereo not drawn) [Example 270, 2-(3-oxo-9-phenethyl-4-phenyl-1-oxa-4,9-diazaspiro[5.5]undecan-2-yl)acetic acid hydrochloride] | > 500 | –
CC1OC2(CCN(CCc3ccccc3)CC2)CN(c2cccc(C(=O)N(C)C)c2)C1=O.Cl (stereo not drawn) [Example 271, N,N-dimethyl-3-(2-methyl-3-oxo-9-phenethyl-1-oxa-4,9-diazaspiro[5.5]undecan-4-yl)benzamide hydrochloride] | – | μ and σ1 dual binding: ++
CN(C)C(=O)CC1OC2(CCN(CCc3ccccc3)CC2)CN(c2ccccc2)C1=O.Cl (stereo not drawn) [Example 272, N,N-dimethyl-2-(3-oxo-9-phenethyl-4-phenyl-1-oxa-4,9-diazaspiro[5.5]undecan-2-yl)acetamide hydrochloride] | – | μ and σ1 dual binding: ++
CC1OC2(CCN(CCc3ccc(C(=O)N(C)C)cc3)CC2)CN(c2ccccc2)C1=O (stereo not drawn) [Example 273, N,N-dimethyl-4-(2-(2-methyl-3-oxo-4-phenyl-1-oxa-4,9-diazaspiro[5.5]undecan-9-yl)ethyl)benzamide hydrochloride] | > 500 | –
CNC(=O)c1ccc(CCN2CCC3(CC2)CN(c2ccccc2)C(=O)C(C)O3)cc1 (stereo not drawn) [Example 274, N-methyl-4-(2-(2-methyl-3-oxo-4-phenyl-1-oxa-4,9-diazaspiro[5.5]undecan-9-yl)ethyl)benzamide hydrochloride] | < 500 | –
CNC(=O)CCN1CC2(CCN(CCc3ccccc3)CC2)OC2(CC2)C1=O [Example 275, N-methyl-3-[13-oxo-8-phenethyl-4-oxa-8,12-diazadispiro[2.1.5.3]tridecan-12-yl]propanamide hydrochloride] | > 500 | –
CNC(=O)c1cccc(CCN2CCC3(CC2)CN(c2ccccc2F)C(=O)C(C)O3)c1 (stereo not drawn) [Example 276, 3-(2-(4-(2-fluorophenyl)-2-methyl-3-oxo-1-oxa-4,9-diazaspiro[5.5]undecan-9-yl)ethyl)-N-methylbenzamide] | – | Ki: < 500 nM
O=C1N(c2ccccc2)CC2(CCN(CC(O)c3ccccc3)CC2)OC12CC2 (stereo not drawn) [Example 277, 8-(2-hydroxy-2-phenylethyl)-12-phenyl-4-oxa-8,12-diazadispiro[2.1.5.3]tridecan-13-one] | – | Ki: < 100 nM
O=C1COC2(CCN(CC(O)c3ccccc3)CC2)CN1Cc1ccc(C(F)(F)F)cn1 (stereo not drawn) [Example 278, 9-(2-hydroxy-2-phenylethyl)-4-((5-(trifluoromethyl)pyridin-2-yl)methyl)-1-oxa-4,9-diazaspiro[5.5]undecan-3-one] | < 500 | –
Cl.O=C1N(CCCO)CC2(CCN(CCc3ccccc3)CC2)OC12CC2 [Example 279, 12-(3-hydroxypropyl)-8-phenethyl-4-oxa-8,12-diazadispiro[2.1.5.3]tridecan-13-one hydrochloride] | – | μ and σ1 dual binding: ++
CC1OC2(CCN(CCc3ccc(N)nc3)CC2)CN(c2ccccc2)C1=O (stereo not drawn) [Example 280, 9-(2-(6-aminopyridin-3-yl)ethyl)-2-methyl-4-phenyl-1-oxa-4,9-diazaspiro[5.5]undecan-3-one] | > 500 | –
CC(C)C1OC2(CCN(CCc3ccccc3OCCO)CC2)CN(c2ccccc2F)C1=O (stereo not drawn) [Example 281, 4-(2-fluorophenyl)-9-(2-(2-hydroxyethoxy)phenethyl)-2-isopropyl-1-oxa-4,9-diazaspiro[5.5]undecan-3-one] | – | μ and σ1 dual binding [2]: ++
CC1OC2(CCN(CCc3cccc(OCCO)c3)CC2)CN(c2ccccc2F)C1=O (stereo not drawn) [Example 282, 4-(2-fluorophenyl)-9-(3-(2-hydroxyethoxy)phenethyl)-2-methyl-1-oxa-4,9-diazaspiro[5.5]undecan-3-one] | – | Ki: < 100 nM
O=C1C(CO)OC2(CCN(CCc3ccccc3)CC2)CN1c1ccccc1 (stereo not drawn) [Example 283, 2-(hydroxymethyl)-9-phenethyl-4-phenyl-1-oxa-4,9-diazaspiro[5.5]undecan-3-one] | < 500 | –
O=C1COC2(CCN(CCc3ccccc3)CC2)CN1Cc1ncc[nH]1 [Example 284, 4-((1H-imidazol-2-yl)methyl)-9-phenethyl-1-oxa-4,9-diazaspiro[5.5]undecan-3-one hydrochloride] | > 500 | –
